The values below come from patent publication KR20170075293A, “피부 개선용 조성물” (주식회사 엘지생활건강, priority 2015, dated 2017).

Holding throughout (assay type): cell-based
One assay concerns HAS-3. Description: HAS-3 mRNA expression in human keratinocytes (real time PCR). Particulars: Keratinocyte, 24 h, untreated negative control = 100%, GAPDH reference, n = 4, read-out: HAS-3 expression amount. A general note: Quantitative PCR measures a nucleic acid by following its amplification.
The subject of the next assay is HAS-2. Description: HAS-2 mRNA expression in human keratinocytes (real time PCR). Particulars: Keratinocyte, 24 h, untreated negative control = 100%, GAPDH reference, n = 4, read-out: HAS-2 expression amount.
Assay [1] relates to mouse melanoma cells [쥐의 멜라노마 세포(B-16 mouse melanoma cell)]. Description: Inhibition of melanin production in B-16 mouse melanoma cells. Particulars: relative to control; for inhibition rate (melanin production): 3 days, absorbance at 400 nm per 10^6 cells, n = 3.
The test system of assay [2] is sulfated glycosaminoglycan [황산화 글리코사미노글리칸], human fibroblast [인간 유래 섬유아세포]. Nature of the assay: Sulfated glycosaminoglycan synthesis in human fibroblasts (Blyscan kit). To be noted: 24 h; for sulfated glycosaminoglycan production amount: n = 4.
The test system of assay [3] is collagen type I [콜라겐 타입 I], human fibroblast [인간 유래 섬유아세포]. Description: Collagen type I synthesis in human fibroblasts (PICP EIA kit). Particulars: 48 h, n = 4.

With `N[C@H]1C(O)O[C@H](CO)[C@@H](O)[C@@H]1O` (stereo partly shown) [글루코사민, reference compound], the activity at 100 ppm turned out to be 125% with HAS-3 (100 ppm) and 114% in the assay on HAS-2 (100 ppm).
In the case of `OC[C@H]1O[C@@H](Oc2ccc(O)cc2)[C@H](O)[C@@H](O)[C@@H]1O` [알부틴, Arbutin, reference compound], in assay [1] (200 ㎍/ml), the “inhibition rate (melanin production)” value worked out at 31.3%.
Take `COc1cc2ccc(=O)oc2c(OC)c1O` [이소프락시딘, Isofraxidin]: the activity at 1 ppm in the assay on HAS-3 (1 ppm) worked out at 126%; in the assay on HAS-2 (1 ppm), 122%. Moreover, the activity at 10 ppm in the assay with HAS-3 (10 ppm) came out at 151%; in the assay on HAS-2 (10 ppm) it was 135%. Also, the “inhibition rate (melanin production)” value in assay [1] (1 ㎍/ml) is given as 29.1%; in assay [1] (10 ㎍/ml), 34.9%. Further, in assay [1] (concentration not given), the “inhibition rate of melanin production (summary statement)” value was not below 25%. Moreover, the “sulfated glycosaminoglycan production amount” value is 0.50 ng/mL in assay [2] (1 ㎍/ml), 1.64 ng/mL in assay [2] (10 ㎍/ml) and 2.98 ng/mL in assay [2] (20 ㎍/ml). The activation at 20 µg/mL in assay [2] (Homo sapiens, Fibroblast, 20 ㎍/ml, relative to untreated control (0.46 ng/ml), n = 4, read-out: sulfated glycosaminoglycan production increase rate) stood at 548%. The collagen production amount in assay [3] (10 ㎍/ml) was 304 ng/mL; in assay [3] (20 ㎍/ml), 370 ng/mL.
